The text below walks through data of PMC5218480 (PLoS ONE, 2017).

For this test, the system named is MV-4-11 cells. Description: Gene expression microarray analysis (Affymetrix PrimeView) and GSEA. The class given is cell-based, human. Also noted: RFU PODN (11730768_x_at) / Fold change /veh PODN (11730768_x_at) / RFU LINC00158 (11744669_a_at) / Fold change /veh LINC00158 (11744669_a_at) / RFU DUSP10 (11751237_a_at) / Fold change /veh DUSP10 (11751237_a_at) / RFU ID3 (11757404_x_at) / Fold change /veh ID3 (11757404_x_at) / RFU PLEKHG5 (11737974_s_at) / Fold change /veh PLEKHG5 (11737974_s_at) / RFU LRRC4B (11730491_at) / Fold change /veh LRRC4B (11730491_at) / RFU GIMAP4 (11747438_a_at) / Fold change /veh GIMAP4 (11747438_a_at) / RFU KRT8 (11758183_x_at) / Fold change /veh KRT8 (11758183_x_at) / RFU CNN1 (11734310_a_at) / Fold change /veh CNN1 (11734310_a_at) / RFU VPS37D (11726825_at) / Fold change /veh VPS37D (11726825_at) / RFU C10orf10 (11716522_x_at) / Fold change /veh C10orf10 (11716522_x_at) / RFU KIR2DL2 /// KIR2DL4 /// KIR2DL5A /// KIR2DL5B /// KIR2DS1 /// KIR2DS2 /// KIR2DS3 /// KIR2DS4 /// KIR3DL3 /// KIR3DL3 /// KIR3DS1 (11738374_at) / Fold change /veh KIR2DL2 /// KIR2DL4 /// KIR2DL5A /// KIR2DL5B /// KIR2DS1 /// KIR2DS2 /// KIR2DS3 /// KIR2DS4 /// KIR3DL3 /// KIR3DL3 /// KIR3DS1 (11738374_at) / RFU C1QL1 (11718748_at) / Fold change /veh C1QL1 (11718748_at) / RFU TMPRSS4 (11747572_a_at) / Fold change /veh TMPRSS4 (11747572_a_at) / RFU HAMP (11756126_x_at) / Fold change /veh HAMP (11756126_x_at) / RFU RNFT2 (11725882_a_at) / Fold change /veh RNFT2 (11725882_a_at) / RFU NR4A2 (11747474_a_at) / Fold change /veh NR4A2 (11747474_a_at) / RFU ABCC12 (11746883_a_at) / Fold change /veh ABCC12 (11746883_a_at) / RFU TMEM136 (11760407_x_at) / Fold change /veh TMEM136 (11760407_x_at) / RFU CLDN22 /// WWC2 (11732394_at) / Fold change /veh CLDN22 /// WWC2 (11732394_at) / RFU HLA-DPB1 (11760878_x_at) / Fold change /veh HLA-DPB1 (11760878_x_at) / RFU SPINT1 (11716480_a_at) / Fold change /veh SPINT1 (11716480_a_at) / RFU GAP43 (11754022_s_at) / Fold change /veh GAP43 (11754022_s_at) / RFU A4GNT (11735810_at) / Fold change /veh A4GNT (11735810_at) / RFU PRB3 (11715151_x_at) / Fold change /veh PRB3 (11715151_x_at) / RFU TUBB4B (11761932_at) / Fold change /veh TUBB4B (11761932_at) / RFU CAPN14 (11732068_a_at) / Fold change /veh CAPN14 (11732068_a_at) / RFU TMCC2 (11721928_a_at) / Fold change /veh TMCC2 (11721928_a_at) / RFU IRGQ (11745062_a_at) / Fold change /veh IRGQ (11745062_a_at) / RFU FAM174B (11720279_a_at) / Fold change /veh FAM174B (11720279_a_at) / RFU TMPRSS4 (11748680_a_at) / Fold change /veh TMPRSS4 (11748680_a_at) / RFU FAM212B (11763350_a_at) / Fold change /veh FAM212B (11763350_a_at) / RFU PLEKHG5 (11743358_a_at) / Fold change /veh PLEKHG5 (11743358_a_at) / RFU ZSCAN30 (11745921_a_at) / Fold change /veh ZSCAN30 (11745921_a_at) / RFU CMKLR1 (11741424_a_at) / Fold change /veh CMKLR1 (11741424_a_at) / RFU LOC101060620 /// MAPK8IP1 (11723275_at) / Fold change /veh LOC101060620 /// MAPK8IP1 (11723275_at) / RFU SPTSSB (11747773_x_at) / Fold change /veh SPTSSB (11747773_x_at) / RFU PRSS12 (11739890_at) / Fold change /veh PRSS12 (11739890_at) / RFU BIN1 (11741810_x_at) / Fold change /veh BIN1 (11741810_x_at) / RFU WNT11 (11732464_a_at) / Fold change /veh WNT11 (11732464_a_at) / RFU C10orf10 (11716521_a_at) / Fold change /veh C10orf10 (11716521_a_at) / RFU C5orf56 (11738089_at) / Fold change /veh C5orf56 (11738089_at) / RFU CYB561 (11721691_x_at) / Fold change /veh CYB561 (11721691_x_at) / RFU ANKRD19P (11752326_a_at) / Fold change /veh ANKRD19P (11752326_a_at) / RFU OR2T12 /// OR2T33 /// OR2T8 (11738714_s_at) / Fold change /veh OR2T12 /// OR2T33 /// OR2T8 (11738714_s_at) / RFU VCAN (11748164_a_at) / Fold change /veh VCAN (11748164_a_at) / RFU JSRP1 (11732532_at) / Fold change /veh JSRP1 (11732532_at) / RFU KRTAP10-11 (11738290_x_at) / Fold change /veh KRTAP10-11 (11738290_x_at) / RFU MYO3A (11730013_a_at) / Fold change /veh MYO3A (11730013_a_at) / RFU EBF3 (11725865_a_at) / Fold change /veh EBF3 (11725865_a_at) / RFU CAMK2N1 (11719241_x_at) / Fold change /veh CAMK2N1 (11719241_x_at) / RFU C5orf56 (11738088_a_at) / Fold change /veh C5orf56 (11738088_a_at) / RFU OLFML3 (11715873_a_at) / Fold change /veh OLFML3 (11715873_a_at) / RFU LOC100653217 /// NTM (11731650_a_at) / Fold change /veh LOC100653217 /// NTM (11731650_a_at) / RFU MAPK11 (11762145_a_at) / Fold change /veh MAPK11 (11762145_a_at) / RFU FIZ1 (11724087_x_at) / Fold change /veh FIZ1 (11724087_x_at) / RFU OASL (11726364_x_at) / Fold change /veh OASL (11726364_x_at) / RFU SOX15 (11748057_x_at) / Fold change /veh SOX15 (11748057_x_at) / RFU CD79A (11719716_a_at) / Fold change /veh CD79A (11719716_a_at) / RFU HIST1H1D (11736915_at) / Fold change /veh HIST1H1D (11736915_at) / RFU CASKIN2 (11723855_a_at) / Fold change /veh CASKIN2 (11723855_a_at) / RFU LOC730098 (11760151_x_at) / Fold change /veh LOC730098 (11760151_x_at) / RFU OR4N2 (11742367_at) / Fold change /veh OR4N2 (11742367_at) / RFU PRRT2 (11749266_a_at) / Fold change /veh PRRT2 (11749266_a_at) / RFU SNX32 (11753110_a_at) / Fold change /veh SNX32 (11753110_a_at) / RFU CDHR5 (11726645_a_at) / Fold change /veh CDHR5 (11726645_a_at) / RFU RCAN1 (11760418_a_at) / Fold change /veh RCAN1 (11760418_a_at) / RFU FAM167A (11723789_a_at) / Fold change /veh FAM167A (11723789_a_at) / RFU FAM26E (11764081_at) / Fold change /veh FAM26E (11764081_at) / RFU ISYNA1 (11749810_s_at) / Fold change /veh ISYNA1 (11749810_s_at) / RFU ACY1 (11761880_at) / Fold change /veh ACY1 (11761880_at) / RFU 11764098_at / Fold change /veh 11764098_at / RFU SAMD14 (11745864_x_at) / Fold change /veh SAMD14 (11745864_x_at) / RFU NPB (11741838_a_at) / Fold change /veh NPB (11741838_a_at) / RFU TMPRSS6 (11731388_a_at) / Fold change /veh TMPRSS6 (11731388_a_at) / RFU KRTAP10-2 (11738614_at) / Fold change /veh KRTAP10-2 (11738614_at) / RFU ARHGAP8 /// PRR5-ARHGAP8 (11727945_x_at) / Fold change /veh ARHGAP8 /// PRR5-ARHGAP8 (11727945_x_at) / RFU KRTAP5-7 /// NADSYN1 (11734609_at) / Fold change /veh KRTAP5-7 /// NADSYN1 (11734609_at) / RFU RASL12 (11751679_a_at) / Fold change /veh RASL12 (11751679_a_at) / RFU CDKN2B (11736163_a_at) / Fold change /veh CDKN2B (11736163_a_at) / RFU PRF1 (11729649_at) / Fold change /veh PRF1 (11729649_at) / RFU, ZNF638 /// ZNF638-IT1 / Fold change vs veh, ZNF638 /// ZNF638-IT1 / RFU, PANK3 / Fold change vs veh, PANK3 / RFU, SH3YL1 / Fold change vs veh, SH3YL1 / RFU, ZEB2 / Fold change vs veh, ZEB2 / RFU, NRIP1 / Fold change vs veh, NRIP1 / RFU, PTTG1IP / Fold change vs veh, PTTG1IP / RFU, CAPN2 / Fold change vs veh, CAPN2 / RFU, MED14 / Fold change vs veh, MED14 / RFU, SNORA58 / Fold change vs veh, SNORA58 / RFU, C1orf63 / Fold change vs veh, C1orf63 / RFU, LRRFIP1 / Fold change vs veh, LRRFIP1 / RFU, NDUFAF7 / Fold change vs veh, NDUFAF7 / RFU, SLC12A2 / Fold change vs veh, SLC12A2 / RFU, IBTK / Fold change vs veh, IBTK / RFU, ESF1 / Fold change vs veh, ESF1 / Fold change vs veh, TMEM50B / RFU, TAOK1 / Fold change vs veh, TAOK1 / RFU, ACBD3 / Fold change vs veh, ACBD3 / RFU, TMA16 / Fold change vs veh, TMA16 / RFU, RWDD3 / Fold change vs veh, RWDD3 / RFU, BCAT1 / Fold change vs veh, BCAT1 / RFU, EDEM3 / Fold change vs veh, EDEM3 / RFU, TMEM33 / Fold change vs veh, TMEM33 / RFU, WDR75 / Fold change vs veh, WDR75 / RFU, AHCTF1 / Fold change vs veh, AHCTF1 / RFU, TFRC / Fold change vs veh, TFRC / RFU, ZDHHC17 / Fold change vs veh, ZDHHC17 / RFU, NOM1 / Fold change vs veh, NOM1 / RFU, ARL8B / Fold change vs veh, ARL8B / RFU, ZBTB11 / Fold change vs veh, ZBTB11 / RFU, TAMM41 / Fold change vs veh, TAMM41 / RFU, KIAA1704 /// LOC100996395 / Fold change vs veh, KIAA1704 /// LOC100996395 / RFU, ING1 / Fold change vs veh, ING1 / RFU, TRMT61B / Fold change vs veh, TRMT61B / RFU, FUBP3 / Fold change vs veh, FUBP3 / RFU, TP53 / Fold change vs veh, TP53 / RFU, TNKS2 / Fold change vs veh, TNKS2 / RFU, ZFP14 / Fold change vs veh, ZFP14 / RFU, ACTR2 / Fold change vs veh, ACTR2 / RFU, PPP3R1 / Fold change vs veh, PPP3R1 / RFU, PIK3R1 / Fold change vs veh, PIK3R1 / RFU, HNRNPA1 / Fold change vs veh, HNRNPA1 / RFU, RNF170 / Fold change vs veh, RNF170 / RFU, ZNF28 / Fold change vs veh, ZNF28 / RFU, RNGTT / Fold change vs veh, RNGTT / RFU, OGT / Fold change vs veh, OGT / RFU, BRD1 / Fold change vs veh, BRD1 / RFU, MARS / Fold change vs veh, MARS / RFU, ZNF655 / Fold change vs veh, ZNF655 / RFU, FAHD1 / Fold change vs veh, FAHD1 / RFU, BDP1 / Fold change vs veh, BDP1 / RFU, LRRCC1 / Fold change vs veh, LRRCC1 / RFU, ARID1A / Fold change vs veh, ARID1A / RFU, ZNF146 / Fold change vs veh, ZNF146 / RFU, ZNF330 / Fold change vs veh, ZNF330 / RFU, GPN3 / Fold change vs veh, GPN3 / RFU, C9orf123 / Fold change vs veh, C9orf123 / RFU, N4BP2L2 / Fold change vs veh, N4BP2L2 / RFU, ARFIP1 / Fold change vs veh, ARFIP1 / RFU, FAM179B / Fold change vs veh, FAM179B / RFU, BCL10 / Fold change vs veh, BCL10 / RFU, UHRF1BP1L / Fold change vs veh, UHRF1BP1L / RFU, BET1 / Fold change vs veh, BET1 / RFU, CNOT2 / Fold change vs veh, CNOT2 / RFU, ZNF268 / Fold change vs veh, ZNF268 / Fold change vs veh, ZNF507 / RFU, DGCR2 / Fold change vs veh, DGCR2 / RFU, WDSUB1 / Fold change vs veh, WDSUB1 / Fold change vs veh, HSP90B1 /// MIR3652 / RFU, ADSS / Fold change vs veh, ADSS / RFU, GK / Fold change vs veh, GK / RFU, ZNF148 / Fold change vs veh, ZNF148 / RFU, TAF9 / Fold change vs veh, TAF9 / RFU, SLC1A5 / Fold change vs veh, SLC1A5 / RFU, SLMO2 / Fold change vs veh, SLMO2 / RFU, ABCC4 / Fold change vs veh, ABCC4 / RFU, LOC101060439 /// RAP1B / Fold change vs veh, LOC101060439 /// RAP1B / RFU, RFX7 / Fold change vs veh, RFX7 / RFU, GTPBP10 / Fold change vs veh, GTPBP10 / RFU, CNEP1R1 / Fold change vs veh, CNEP1R1 / RFU, BIVM-ERCC5 /// ERCC5 / Fold change vs veh, BIVM-ERCC5 /// ERCC5 / RFU, ILF3 / Fold change vs veh, ILF3 / RFU 11762660_at / Fold change /veh 11762660_at / RFU VCAN (11757783_s_at) / Fold change /veh VCAN (11757783_s_at) / RFU DDX43 (11728927_at) / Fold change /veh DDX43 (11728927_at) / RFU KRT8 (11758188_x_at) / Fold change /veh KRT8 (11758188_x_at) / RFU NKD1 (11759106_at) / Fold change /veh NKD1 (11759106_at) / RFU SRD5A1 (11742802_a_at) / Fold change /veh SRD5A1 (11742802_a_at) / RFU TPSAB1 /// TPSB2 (11721975_s_at) / Fold change /veh TPSAB1 /// TPSB2 (11721975_s_at) / RFU GSTM3 (11746129_a_at) / Fold change /veh GSTM3 (11746129_a_at) / RFU IL23R (11737362_x_at) / Fold change /veh IL23R (11737362_x_at) / RFU TMEM51 (11727254_a_at) / Fold change /veh TMEM51 (11727254_a_at) / RFU PIWIL2 (11732686_x_at) / Fold change /veh PIWIL2 (11732686_x_at) / RFU ORM1 (11744905_x_at) / Fold change /veh ORM1 (11744905_x_at) / RFU CCDC152 (11743942_at) / Fold change /veh CCDC152 (11743942_at) / RFU ECM1 (11717891_a_at) / Fold change /veh ECM1 (11717891_a_at) / RFU IL23R (11748794_a_at) / Fold change /veh IL23R (11748794_a_at) / RFU TNFAIP8L3 (11732012_x_at) / Fold change /veh TNFAIP8L3 (11732012_x_at) / RFU MBOAT4 (11741988_at) / Fold change /veh MBOAT4 (11741988_at) / RFU 11764193_at / Fold change /veh 11764193_at / RFU TMEM53 (11763286_at) / Fold change /veh TMEM53 (11763286_at) / RFU MAGEB2 (11727129_at) / Fold change /veh MAGEB2 (11727129_at) / RFU TMEM200A (11744735_a_at) / Fold change /veh TMEM200A (11744735_a_at) / RFU CCDC152 (11751479_a_at) / Fold change /veh CCDC152 (11751479_a_at) / RFU FAM211A (11726209_a_at) / Fold change /veh FAM211A (11726209_a_at) / RFU RGS16 (11746705_a_at) / Fold change /veh RGS16 (11746705_a_at) / RFU VCAN (11755009_s_at) / Fold change /veh VCAN (11755009_s_at) / RFU RHOB (11743442_s_at) / Fold change /veh RHOB (11743442_s_at) / RFU RGS16 (11720943_a_at) / Fold change /veh RGS16 (11720943_a_at) / RFU RGS16 (11720944_at) / Fold change /veh RGS16 (11720944_at) / RFU, VPS4B / Fold change vs veh, VPS4B / RFU, CREB1 / Fold change vs veh, CREB1 / RFU, DNAJC13 / Fold change vs veh, DNAJC13 / RFU, GNAQ / Fold change vs veh, GNAQ / RFU, CDK5R1 / Fold change vs veh, CDK5R1 / RFU, ZRANB3 / Fold change vs veh, ZRANB3 / RFU, CUL4A / Fold change vs veh, CUL4A / RFU, CCNY / Fold change vs veh, CCNY / RFU, UFL1 / Fold change vs veh, UFL1 / RFU, COG3 / Fold change vs veh, COG3 / RFU, DIAPH2 / Fold change vs veh, DIAPH2 / RFU, SKA2 / Fold change vs veh, SKA2 / RFU, AFF3 / Fold change vs veh, AFF3 / RFU, LMF1 / Fold change vs veh, LMF1 / RFU, IPO11 / Fold change vs veh, IPO11 / RFU, DFFB / Fold change vs veh, DFFB / RFU, FOXP1 / Fold change vs veh, FOXP1 / RFU, CARD8 / Fold change vs veh, CARD8 / RFU, STRN3 / Fold change vs veh, STRN3 / RFU, ADK / Fold change vs veh, ADK / RFU, RASSF2 / Fold change vs veh, RASSF2 / RFU, WIPF1 / Fold change vs veh, WIPF1 / RFU, LARP1B / Fold change vs veh, LARP1B / RFU, RASA1 / Fold change vs veh, RASA1 / RFU, RB1 / Fold change vs veh, RB1 / RFU, PPFIA1 / Fold change vs veh, PPFIA1 / RFU, MAT2A / Fold change vs veh, MAT2A / RFU, CCT5 / Fold change vs veh, CCT5 / RFU, WDR92 / Fold change vs veh, WDR92 / RFU, CUX1 / Fold change vs veh, CUX1 / RFU, TTC7A / Fold change vs veh, TTC7A / RFU, TMEM135 / Fold change vs veh, TMEM135 / RFU, DEPTOR / Fold change vs veh, DEPTOR / RFU, CPM / Fold change vs veh, CPM / RFU, DNAJB6 / Fold change vs veh, DNAJB6 / RFU, CACNA2D3 / Fold change vs veh, CACNA2D3 / RFU, DTX4 / Fold change vs veh, DTX4 / RFU, TFCP2 / Fold change vs veh, TFCP2 / RFU, GMCL1 /// GMCL1P1 / Fold change vs veh, GMCL1 /// GMCL1P1 / RFU, AEBP2 / Fold change vs veh, AEBP2 / RFU, SNHG1 /// SNORD22 /// SNORD25 /// SNORD26 /// SNORD27 /// SNORD28 /// SNORD29 /// SNORD31 / Fold change vs veh, SNHG1 /// SNORD22 /// SNORD25 /// SNORD26 /// SNORD27 /// SNORD28 /// SNORD29 /// SNORD31 / Fold change (Aza/veh), C12orf56 (ProbeSet 11735607_a_at) / Fold change (ACY-1035/veh), C12orf56 (ProbeSet 11735607_a_at) / Fold change (Aza/veh), FGFR1OP (ProbeSet 11751329_s_at) / Fold change (ACY-1035/veh), FGFR1OP (ProbeSet 11751329_s_at) / Fold change (Aza/veh), VPS36 (ProbeSet 11739960_a_at) / Fold change (ACY-1035/veh), VPS36 (ProbeSet 11739960_a_at) / RFU SYPL1 (11715823_x_at) / Fold change /veh SYPL1 (11715823_x_at) / RFU IGFBP7 (11715501_s_at) / Fold change /veh IGFBP7 (11715501_s_at) / RFU REEP3 (11722064_at) / Fold change /veh REEP3 (11722064_at) / RFU IGLL1 (11728026_x_at) / Fold change /veh IGLL1 (11728026_x_at): dose or concentration left out as unconfirmed. To be noted: ProbeSet 11745789_a_at; LIST D.

For `Nc1ncn([C@@H]2O[C@H](CO)[C@@H](O)[C@H]2O)c(=O)n1` [azacitidine], the “Fold change vs veh, TMEM135” value stood at 0.56.
